Test results published in patent US11505579B2, “Methods of treatment and related compositions” (ASCEND BIOPHARMACEUTICALS LTD, priority 2020, dated 2022).

What was measured:
B16F10 tumours = assay: Tumour growth and survival of B16F10 tumour-bearing mice (B16F10-e357 study); format: in vivo, mouse; conditions: for mice alive after day 12: culled at ethical end point
Description: The B16F10 murine colon carcinoma cell line was maintained in DMEM medium containing 10% fetal bovine serum, 2 mM glutamine, 100 units/mL sodium penicillin G, 25 μg/mL gentamicin, and 100 μg/mL streptomycin sulfate. The tumour cells were cultured in tissue culture flasks in a humidified incubator at 37° C., in an atmosphere of 5% CO2 and 95% air.
B16F10 cells were harvested during log phase growth and resuspended in PBS. Each mouse was injected subcutaneously in the right flank with 5×10^5 cells (in a 0.1 mL cell suspension). Tumours were calipered in two dimensions to monitor growth as their mean volume approached the desired 30 to 60 mm^3 range. Tumour size, in mm^3, was calculated from:
[formula] where w=width and l=length, in mm, of the tumour. Tumour weight can be estimated based on the assumption that 1 mg is equivalent to 1 mm^3 of tumour volume.
Eight days after tumour cell implantation, on Day 1 of the study, animals were sorted into eight groups (n=10 per group) according to tumour volume, with individual tumour volumes ranging from 32 to 63 mm^3 and group mean tumour volumes ranging from 41 to 42 mm^3. Tumour progression was monitored using caliper measurements three times weekly for the duration of the study.
Vismodegib and Ad5-mIFNg (stock concentration 3.3×10^12 viral particles/mL) were stored at −80° C. prior to formulation. On each day of dosing, Vismodegib was dissolved in vehicle 2 (75% PEG400:25% D5W (5% dextrose in water)) to obtain 5 mg/mL and 10 mg/mL dosing solutions which delivered a dose of 50 mg/kg and 100 mg/kg when administered in a volume of 10 mL/kg (0.2 mL per 20 g mouse), adjusted to the body weight of each animal.
On the first day of dosing, Ad5-mIFNg was thawed rapidly and diluted in vehicle 1 (1 M saccharose, 54 mg/L Tween® 80, 10 mM Tris, 1 mM MgCl2, 150 mM NaCl, pH 8) to obtain dosing solutions of 5×10^11 particles/mL and 2×10^11 particles/mL, which delivered 1×10^10 particles/animal when dosed in a fixed volume of 20 μL and 50 μL per animal, respectively.
On Day 1 of the study, female mice bearing established B16F10 tumours were sorted into eight groups (n=10 per group) and began dosing according to the treatment plan summarized in Table 2. Vehicle 1 and Ad5-mIFNg (1×10^10 particles per animal) were administered intratumourally (itu) in a fixed volume of either 20 μL or 50 μL; vehicle 2 and Vismodegib were administered orally (po) in a volume of 10 mL/kg (0.2 mL per 20 g mouse), adjusted to the body weight of each animal. The groups were as follow:
Group 1 served as the control group and received 20 μL vehicle 1 itu once a day (qd) for three days (qd×3) and vehicle 2 po qd×7.
Group 2 received 20 μL vehicle 1 itu qd×3 and 50 mg/kg vismodegib po qd×7.
Group 3 received 1×10^10 particles/animal Ad5-mIFNg in 20 μL itu qd×3 and vehicle 2.
Group 4 received 1×10^10 particles/animal Ad5-mIFNg 1 itu qd×3 and 50 mg/kg vismodegib 2 po qd×7.
Group 5 received 20 μL vehicle 1 itu once a week for a week (qwk×1) followed by 50 μL vehicle 1 itu qwk×1 (starting on Day 8) in addition to vehicle 2 po three times a week (tiwk) to Day 10.
Group 6 received 20 μL vehicle 1 itu once a week for a week (qwk×1) followed by 50 μL vehicle 1 itu qwk×1 (starting on Day 8) and 100 mg/kg Vismodegib in vehicle 2 po tiwk to Day 13. […]

[1] = tested on: operable basal cell carcinoma; conditions: Vismodegib 150 mg daily over 12 weeks; Sofen et al. (2015); cited from earlier work

CS(=O)(=O)c1ccc(C(=O)Nc2ccc(Cl)c(-c3ccccn3)c2)c(Cl)c1 [Vismodegib]
tumour growth compared to the control vehicle treated groups (B16F10 tumours; G2: Vismodegib 50 mg/kg po qd×7, vehicle 1 itu qd×3): did not significantly reduce tumour growth | mice alive after day 12 (B16F10 tumours; G2: Vismodegib 50 mg/kg po qd×7): none | mice still alive on day 36 (number of mice) (B16F10 tumours; G2: Vismodegib only 50 mg/kg po qd×7, day 36): no mice | tumour growth compared to the control vehicle treated groups (B16F10 tumours; G6: Vismodegib 100 mg/kg po tiwk×3, vehicle 1 itu): did not significantly reduce tumour growth | mice alive after day 12 (B16F10 tumours; G6: Vismodegib 100 mg/kg po tiwk×3): none | loco-regional CHC [1]: 16%
